Source: patent US20110008347A1, “CANCER-RELATED PROTEIN KINASES” (Agency for Science ,Technology and Research, priority 2006, published 2011)

Assays:
[1] = system: HuH7 cells; test: AFP production in HuH7 cells after exposure to FGFR inhibitor; assay type: cell-based, human; settings: HuH7, 0, 1, 5 and 10 μM (FIG. 15)
Method: (§1) Supernatants from the respective FGF19 stimulation and siRNA experiments were subjected to AFP ELISA assay using the DELFIA hAFP kit (Perkin Elmer, Boston, Mass.), performed according to manufacturer's protocol. The readout was converted to concentration (ng/mL) using the standard curve derived from the solutions provided in the kit. AFP production by the cells was subsequently normalized to the number of cells in each well. The cell number was determined by ATP bioluminescence Cell-Titer Glo assay (Promega, Madison, Wis.) using protocol as described by the manufacturer.

[2] = system: HuH7; test: Viability of HCC cell lines (HuH7) exposed to FGFR inhibitor; assay type: cell-based, human
[3] = system: HEK293; test: Viability of non-cancerous cell line HEK293 exposed to FGFR inhibitor; assay type: cell-based; settings: non-cancerous cell line HEK293, data not shown
[4] = biological target: T1, FGFR4 (Homo sapiens, UniProt P22455); test: FGF19 ligand stimulation, AFP ELISA, HuH7; assay type: cell-based; parameters: stimulation of FGFR4 in the HCC cell line HuH7 using 50 and 100 ng/ml of the specific ligand FGF19; endogenous in cells; host or cells: HuH7
T1 sequence (P22455 22-802): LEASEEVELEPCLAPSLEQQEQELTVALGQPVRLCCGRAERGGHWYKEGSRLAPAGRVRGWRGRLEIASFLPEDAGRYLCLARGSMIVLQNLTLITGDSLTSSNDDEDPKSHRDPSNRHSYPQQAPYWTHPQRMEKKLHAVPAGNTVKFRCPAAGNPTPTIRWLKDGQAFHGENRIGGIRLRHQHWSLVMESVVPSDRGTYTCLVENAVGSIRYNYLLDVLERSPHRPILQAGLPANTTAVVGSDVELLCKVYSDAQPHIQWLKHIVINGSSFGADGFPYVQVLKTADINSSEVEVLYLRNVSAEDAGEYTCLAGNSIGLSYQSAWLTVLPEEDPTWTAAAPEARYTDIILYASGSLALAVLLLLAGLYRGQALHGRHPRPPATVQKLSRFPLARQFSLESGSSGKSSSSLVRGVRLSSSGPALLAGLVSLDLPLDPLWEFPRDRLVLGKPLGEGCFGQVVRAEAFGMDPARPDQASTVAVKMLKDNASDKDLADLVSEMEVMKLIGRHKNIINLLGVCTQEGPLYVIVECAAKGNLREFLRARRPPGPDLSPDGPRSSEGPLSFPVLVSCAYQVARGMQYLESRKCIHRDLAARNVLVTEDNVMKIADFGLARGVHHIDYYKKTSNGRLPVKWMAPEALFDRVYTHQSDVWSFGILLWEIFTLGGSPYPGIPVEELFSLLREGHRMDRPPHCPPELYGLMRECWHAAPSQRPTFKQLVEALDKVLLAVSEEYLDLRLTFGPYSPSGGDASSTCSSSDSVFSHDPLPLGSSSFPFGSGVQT
Method: (§2) HepG2 or HuH7 cells were seeded into 96-well plates and allowed to attach overnight. They were serum-starved for 24 h before addition of heparin. Two hours later, FGF19 (R&D Systems, Minneapolis, Minn., 50-100 ng/mL final concentration) was administered. After 8 hours, aliquots of the supernatant were harvested for AFP ELISA assay as described below. Similar FGF19 stimulations were performed in 10 cm dishes for immunoblot detection of phospho-FRS2α.
as §1

[5] = biological target: T1, FGFR4; test: FGF19 ligand stimulation, AFP ELISA, HepG2; assay type: cell-based; parameters: endogenous in cells; settings: HepG2, 50 and 100 ng/ml FGF19 (FIG. 12)
Method: as §2, §1

Row | AFP production ([4]; HCC cell lines (FIG. 11, FIG. 12)) | AFP production ([4]; HuH7, 50 and 100 ng/ml FGF19 (FIG. 11)) | AFP production [5] | Compound | AFP production [1] | anti-proliferative effect ([2]; HCC cell lines vs. non-cancerous cell line HEK293) | anti-proliferative effect (viability) ([2]; HuH7 (FIG. 16)) | LD50 [3] [µM]
1 |  |  |  | CCN(CC)CCCCNc1ncc2cc(-c3cc(OC)cc(OC)c3)c(NC(=O)NC(C)(C)C)nc2n1 [PD173074] | blocks AFP production | exquisite anti-proliferative effect | exquisite anti-proliferative effect | > 50
2 | elevated AFP production | elevated AFP production | elevated AFP production | FGF19: specific ligand used for stimulation of FGFR4 (R&D Systems) |  |  |  | 
